Source: patent publication US6369003B1, “Process and composition for soil improvement by reducing microbially formed ethylene in the soil” (BASF Aktiengesellschaft, priority 1994, dated 2002)
Like-named read-outs stand apart in the source and are kept apart here.

What was measured:
[1] = tested on: mutant EZ (Sym5) of peas; conditions: severely reduced nodule formation of the mutant; Fearn and La Rue 1991; cited from earlier work
[2] = tested on: parent strain Sparkle; conditions: Fearn and La Rue 1991; cited from earlier work
[3] = tested on: Soybean plants (Delta Pine 415); assay: Soybeans test 3c: root nodules and total N, greenhouse; type: in vivo, Glycine max; conditions: for Nodules: untreated 46
Procedure: In these tests various types of non-sterile soils were used. The cultivation of the plants was carried out under greenhouse or climatic chamber conditions. The active compounds according to the invention were applied uniformly distributed over the soil surface in an aqueous preparation after the emergence of the respective test plants. The supply of water for the plants was carrried out using the same technique, always paying attention to uniform moistness of the soil. In the case of the cultivation of legumes, defined amounts of species-specific Rhizobia were admixed to the soil. In some cases inoculation was also carried out by seed treatment.
a) Soybean plants (Delta Pine 415) were cultivated under greenhouse conditions in low N Limburgerhof soil in plastic pots (500 ml) and watered from above as required. A few days after emergence the plants were thinned out to 5 plants per pot.
In 8 pots in each case per test member an aqueous active compound solution of 2.3.1.3 was applied by watering. 16 pots remained untreated in each case.
c) Test procedure as in 3 a)

[4] = tested on: pea variety Sparkle; conditions: nodule formation reduced by provision of light in the root area; Lee and La Rue; cited from earlier work
[5] = tested on: pea varieties Sparkle and Rondo; conditions: Lee and La Rue, cited from earlier work
[6] = tested on: white sweetclover; conditions: 0.07 μl/l of ethylene gas/l of air; Lee and La Rue; cited from earlier work
[7] = tested on: soybean plants; conditions: even at distinctly higher ethylene administration; Lee and La Rue; cited from earlier work
[8] = 0.030 mg of a.s./pot; procedure as in 3 a)
[9] = 0.300 mg of a.s./pot; procedure as in 3 a)

## O=[N+]([O-])[O-].O=[N+]([O-])[O-].[Co+2] [Co(NO3)2]
[1]
  nodule formation: partially restored
[2]
  nodulation: not affected

## CCCCCCOC(=O)CON=C(C)C [active compound 2.3.1.4]
[3]; [8]
  Total N (shoots + root): 103 % of control
  Nodules: 55 number/pot
[3]; [9]
  Total N (shoots + root): 110 % of control
  Nodules: 66 number/pot

## O=S(=O)([O-])[O-].[Ag+].[Ag+] [Ag2SO4]
[1]
  nodule formation: partially restored
[2]
  nodulation: not affected
[4]
  nodule formation: reverse the reduced nodule formation by light
[5]; peas (Sparkle), in the presence of ethylene
  nodule formation: normal nodule formation could be restored

## C=C [ethylene]
[6]
  nodule formation: severe reduction in nodule formation
[7]
  nodulation: no significant effect on nodulation
[5]; 0.07 μl/l of ethylene gas/l of air
  nodule formation: severe reduction in nodule formation

## CC(C)OCOC(=O)CON=C1CCCCC1 [active compound 2.3.1.5]
[3]; [8]
  Total N (shoots + root): 104 % of control
  Nodules: 70 number/pot
[3]; [9]
  Total N (shoots + root): 107 % of control
  Nodules: 61 number/pot
